Read-outs that look alike come from different tables or passages of the source.
Tests used:
[1] = test system: MCF-7 mammary tumour cells; test: Anti-proliferative activity on the growth of MCF-7 mammary tumour cells (DNA dosage); assay type: cell-based; conditions: MCF-7 cells in DSE medium with 10^-10 M estradiol, D7 to D9, DNA by DABA fluorimetry, read-out: IC 50: concentration which inhibits the growth of MCF7 cells by 50%
Procedure: 2—Anti-proliferative Activity of the Products of the Invention on the Growth of MCF-7 Mammary Tumour Cells
MCF-7 lines are kept in culture in FCS medium (according to 1) at 37° C. in a humid atmosphere containing 5% CO2. Subconfluent cells are collected by trypsination (0.05% trypsin, 0.02% EDTA) then rinsed by gentle centrifugation. A sample of cells in suspension is counted with a Malassez cell.
The cells, resuspended in DSE medium (according to 1), are seeded at the rate of 50,000 cells per well in multiwell plates (24 wells of 2.5 cm^2). Twenty-four hours after seeding (D0), the product to be tested is added to the medium in ethanolic solution (final concentration of ethanol: 0.1%), at a concentration of 10^−11 to 10^−6M, the control wells receiving the same ethanol concentration. The media are renewed every 48 hours. At the end of the experiment (D7 to D9), the medium is extracted and the cells are immediately fixed with 150 microlitres of methanol in order to dose the DNA.
The anti-proliferative activity of the products is evaluated by their capacity to inhibit the increase of DNA
The DNA is dosed by a fluorimetric method using DABA (3,5 diaminobenzoic acid) (according to 2): 150 microlitres of DABA are added to each well; the plates are then incubated for 45 mn at 56° C., then 2 ml of 1N HCl is added. The fluorescence is measured using a fluorimeter (excitation wavelength: 408 nm, emission wavelength: 510 nm).
The quantity of DNA per well is evaluated relative to a reference scale obtained by treating a calf thymus DNA standard under the same conditions.
The concentration in nM which inhibits the growth of MCF7 cells by 50% (IC50) was determined in the manner indicated above:
(1) A Base Medium is Prepared as Follows
The FCS medium is composed of 95% of base medium and 5% of foetal calf serum.
The DSE medium is composed of 95% of base medium, 5% of steroid-free foetal calf serum on carbon-dextran and 10^−10 M of estradiol.
(2) Puzas and Goodman, Analytical Biochemistry, Vol 86, p. 50, 1978

[2] = biological target: T1, Estrogen receptor of a mouse uterus (Mus musculus, UniProt P19785); test: Activity on the estrogen receptor of a mouse uterus (relative bond affinity, displacement of tritiated estradiol); assay type: binding; conditions: mouse uterus cytosol, RBA = 100 (CH)/(CX) relative to unlabelled estradiol
T1 construct: The homogenate is then ultracentrifuged (209,000 g×30 mn.) at 0° C; from tissue; host or cells: uterus of 18 to 21-day old immature female mice, cytosol (ultracentrifugation supernatant of the homogenate)
T1 sequence (P19785 1-599): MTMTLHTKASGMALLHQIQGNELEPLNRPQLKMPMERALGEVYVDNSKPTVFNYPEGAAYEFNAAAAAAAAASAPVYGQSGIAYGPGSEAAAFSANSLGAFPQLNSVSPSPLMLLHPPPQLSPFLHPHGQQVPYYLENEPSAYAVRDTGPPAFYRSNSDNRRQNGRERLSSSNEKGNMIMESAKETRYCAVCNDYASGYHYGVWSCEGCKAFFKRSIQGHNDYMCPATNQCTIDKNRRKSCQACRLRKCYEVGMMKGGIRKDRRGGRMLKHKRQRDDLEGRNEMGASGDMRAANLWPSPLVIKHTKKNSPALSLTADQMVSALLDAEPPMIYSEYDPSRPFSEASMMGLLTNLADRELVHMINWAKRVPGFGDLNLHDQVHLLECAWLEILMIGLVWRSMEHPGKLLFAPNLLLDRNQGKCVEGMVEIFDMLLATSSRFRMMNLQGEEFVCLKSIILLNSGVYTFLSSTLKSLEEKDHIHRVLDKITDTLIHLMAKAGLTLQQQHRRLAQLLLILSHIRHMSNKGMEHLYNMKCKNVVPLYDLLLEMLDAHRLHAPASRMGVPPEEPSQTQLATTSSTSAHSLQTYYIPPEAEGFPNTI
Procedure: 1—Study of the Activity of the Products of the Invention on the Estrogen Receptor of a Mouse Uterus
18 to 21-day old impuberal female mice are sacrificed, the uteri are removed, then homogenized at 0° C., using a Potter teflon-glass in a TS buffered solution (10 mM Tris, 0.25 M saccharose, HCl pH 7.4) (1 g of tissue per 25 ml of TS). The homogenate is then ultracentrifuged (209,000 g×30 mn.) at 0° C. The supernatant aliquots thus obtained are incubated at 25° C. for 5 hours, with a constant concentration (T) of tritiated estradiol in the presence of increasing concentrations either of unlabelled estradiol (0-1000×10^−9M), or of unlabelled product to be tested (1 to 25000×10^−9M). The concentration of bound tritiated estradiol (B) is then measured in each incubate by the carbon-dextran adsorption technique.
Calculation of the Relative Bond Affinity (RBA)
The following two curves are drawn: the percentage of bound tritiated hormone B/BO as a function of the logarithm of the concentration of unlabelled reference hormone or as a function of the logarothm of the concentration of unlabelled test product.
The straight line of the following equation:
BO=% of binding of the bound tritiated hormone in the absence of any unlabelled product.
B=% of the bound tritiated hormone in the presence of a concentration X of unlabelled product.
B min=% of bound tritiated hormone in the presence of a large excess of unlabelled reference hormone (500 nM).
The intersections of the straight line I50 and the curves allow the evaluation of the concentrations of unlabelled reference hormone (CH) and of the unlabelled test product (CX) which inhibit by 50% the specific binding of the tritiated hormone on the receptor.
The relative bond affinity (RBA) of the test product is calculated by the equation: […]

Compound | IC50 ([1]; Homo sapiens, MCF7) [nM] | Relative bond affinity (RBA), Estrogen receptor incubation 5H at 25° C. [2] | IC50 [1] [nM]
C[C@]12C[C@H](CCCCCCCCSCc3ccccn3)[C@@H]3c4ccc(O)cc4CC[C@H]3[C@@H]1CC[C@@H]2O [Example 1, 11beta-[8-[(2-pyridinylmethyl)thio]octyl]estra-1,3,5(10)-triene-3,17beta-diol] | 0.024 | – | –
C[C@]12C[C@H](c3ccc(OCCCCC[S+]([O-])Cc4ccccn4)cc3)[C@@H]3c4ccc(O)cc4CC[C@H]3[C@@H]1CC[C@@H]2O (stereo partly drawn) [Example 5, 11beta-[4-[5-[(2-pyridinylmethyl)sulphinyl]-pentyloxy]phenyl]estra-1,3,5(10)-triene-3,17beta-diol] | 0.012 | 21.2 | –
C[C@]12C[C@H](c3ccc(OCCCCC[S+]([O-])Cc4cccnc4)cc3)[C@@H]3c4ccc(O)cc4CC[C@H]3[C@@H]1CC[C@@H]2O (stereo partly drawn) [Example 7, 11beta-[4-[5-[(3-pyridinylmethyl)sulphinyl]pentyloxy]phenyl]estra-1,3,5(10)-triene-3,17beta-diol] | 0.026 | 26.3 | –
C[C@]12C[C@H](c3ccc(OCCCCCS(=O)(=O)CCCC(F)(F)C(F)(F)F)cc3)[C@@H]3c4ccc(O)cc4CC[C@H]3[C@@H]1CC[C@@H]2O [Example 32, 11beta-[4-[5-[(4,4,5,5,5-pentafluoropentyl)sulphonyl]pentyloxy]phenyl]estra-1,3,5(10)-triene-3,17beta-diol] | 0.1 | 56 | –
CCCCCS(=O)(=O)C(C)CCCOc1ccc([C@H]2C[C@]3(C)[C@@H](O)CC[C@H]3[C@@H]3CCc4cc(O)ccc4[C@H]32)cc1 (stereo partly drawn) [Example 60, 11beta-[4-[4-(pentylsulphonyl)pentyloxy]phenyl]estra-1,3,5(10)-triene-3,17beta-diol] | 0.25 | 18.2 | –
C[C@]1(O)CC[C@H]2[C@@H]3CCc4cc(O)ccc4[C@H]3[C@@H](c3ccc(OCCCCCS(=O)(=O)CCCC(F)(F)C(F)(F)F)cc3)C[C@@]21C [Example 78, 11beta-[4-[5-[(4,4,5,5,5-pentafluoropentyl)sulphonyl]pentyloxy]phenyl]17alpha-methyl estra-1,3,5(10)-triene-3,17beta-diol] | – | 21.8 | 0.03
